Common to all, as to experiment: relative viability (nuclei count vs DMSO), 5 days (fraction); higher = more cells survive
Compound in experiment [1]: COc1cc2ncn(-c3cc(OCc4ccccc4C(F)(F)F)c(C(N)=O)s3)c2cc1OC + COc1cc2c(Oc3ccc(NC(=O)C4(C(=O)Nc5ccc(F)cc5)CC4)cc3F)ccnc2cc1OCCCN1CCOCC1 [Foretinib] (partner 0.25 µM)
The method in brief: (§1)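 The day after seeding in 1536-well plates, lung cancer cell lines were treated by pin tool with a single drug, or with a fixed anchor-drug dose together with five library-drug doses (not always all listed) in √10 steps. After 5 days, a combined fix-and-stain solution (final 0.05% Triton X-100, 1% formaldehyde, 1 ug/ml Hoechst) was added. Nuclei counted on 4× images gave relative viability as treated counts over vehicle counts, reported as the median of duplicate plates.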

Compound in experiment [2]: COc1cc2ncn(-c3cc(OCc4ccccc4C(F)(F)F)c(C(N)=O)s3)c2cc1OC + Cc1nc(NC(=O)N2CCC[C@H]2C(N)=O)sc1-c1ccnc(C(C)(C)C(F)(F)F)c1 [Alpelisib] (partner 2 µM)
The method in brief:
as §1

Compound in experiment [3]: COc1cc2ncn(-c3cc(OCc4ccccc4C(F)(F)F)c(C(N)=O)s3)c2cc1OC + Nc1nc2[nH]cc(CCc3ccc(C(=O)N[C@@H](CCC(=O)O)C(=O)O)cc3)c2c(=O)[nH]1 [Pemetrexed] (partner 0.2 µM)
Put shortly:
as §1

Compound in experiment [4]: COc1cc2ncn(-c3cc(OCc4ccccc4C(F)(F)F)c(C(N)=O)s3)c2cc1OC + O=C(c1cc(Cc2n[nH]c(=O)c3ccccc23)ccc1F)N1CCN(C(=O)C2CC2)CC1 [Olaparib] (partner 8 µM)
Put shortly: as §1

With LC-2-ad, the relative viability was 0.916 in experiment [1] (first compound 0.05 µM); 0.946 in experiment [1] (first compound 0.1581 µM); 0.506 in experiment [1] (first compound 0.5 µM); 0.286 in experiment [1] (first compound 1.581 µM); 0.303 in experiment [1] (first compound 5 µM); 0.791 in experiment [2] (first compound 0.05 µM). For the same cell line, the relative viability in experiment [2] (first compound 0.1581 µM) was 0.784; in experiment [2] (first compound 0.5 µM), 0.135; in experiment [2] (first compound 1.581 µM) it was 0.113; in experiment [2] (first compound 5 µM), 0.1; in experiment [3] (first compound 0.05 µM) it was 0.244; in experiment [3] (first compound 0.1581 µM), 0.281. In addition, the relative viability came to 0.248 in experiment [3] (first compound 0.5 µM); 0.213 in experiment [3] (first compound 1.581 µM); 0.171 in experiment [3] (first compound 5 µM); 0.431 in experiment [4] (first compound 0.05 µM); 0.593 in experiment [4] (first compound 0.1581 µM); 0.466 in experiment [4] (first compound 0.5 µM). Also, the relative viability in experiment [4] (first compound 1.581 µM) stood at 0.173; in experiment [4] (first compound 5 µM), 0.176.

As for COR-L23, the relative viability turned out to be 0.94 in experiment [1] (first compound 0.05 µM); 1.04 in experiment [1] (first compound 0.1581 µM); 0.663 in experiment [1] (first compound 0.5 µM); 0.158 in experiment [1] (first compound 1.581 µM); 0.118 in experiment [1] (first compound 5 µM); 0.85 in experiment [2] (first compound 0.05 µM). Moreover, the relative viability in experiment [2] (first compound 0.1581 µM) is 0.746; in experiment [2] (first compound 0.5 µM), 0.334; in experiment [2] (first compound 1.581 µM), 0.0804; in experiment [2] (first compound 5 µM), 0.0944; in experiment [3] (first compound 0.05 µM) it was 0.201; in experiment [3] (first compound 0.1581 µM) it was 0.208. Also, the relative viability in experiment [3] (first compound 0.5 µM) was 0.166; in experiment [3] (first compound 1.581 µM), 0.156; in experiment [3] (first compound 5 µM), 0.154; in experiment [4] (first compound 0.05 µM) it was 0.307; in experiment [4] (first compound 0.1581 µM) it was 0.282; in experiment [4] (first compound 0.5 µM), 0.138. The relative viability was found to be 0.0966 in experiment [4] (first compound 1.581 µM) and 0.109 in experiment [4] (first compound 5 µM).

Consider SK-LU-1, for which the relative viability in experiment [1] (first compound 0.05 µM) was 0.811; in experiment [1] (first compound 0.1581 µM), 0.765; in experiment [1] (first compound 0.5 µM), 0.32; in experiment [1] (first compound 1.581 µM), 0.219; in experiment [1] (first compound 5 µM), 0.206; in experiment [2] (first compound 0.05 µM), 1.02. For the same cell line, the relative viability in experiment [2] (first compound 0.1581 µM) came out at 0.778; in experiment [2] (first compound 0.5 µM) it was 0.276; in experiment [2] (first compound 1.581 µM) it was 0.291; in experiment [2] (first compound 5 µM), 0.306; in experiment [3] (first compound 0.05 µM) it was 0.7; in experiment [3] (first compound 0.1581 µM), 0.886. For the same cell line, the relative viability in experiment [3] (first compound 0.5 µM) was 0.351; in experiment [3] (first compound 1.581 µM), 0.298; in experiment [3] (first compound 5 µM), 0.272; in experiment [4] (first compound 0.05 µM), 0.39; in experiment [4] (first compound 0.1581 µM), 0.372; in experiment [4] (first compound 0.5 µM), 0.272. The relative viability stood at 0.197 in experiment [4] (first compound 1.581 µM) and 0.207 in experiment [4] (first compound 5 µM).

NCI-H1915: the relative viability in experiment [1] (first compound 0.05 µM) worked out at 1.08; in experiment [1] (first compound 0.1581 µM), 1.03; in experiment [1] (first compound 0.5 µM), 0.702; in experiment [1] (first compound 1.581 µM), 0.204; in experiment [1] (first compound 5 µM), 0.141; in experiment [2] (first compound 0.05 µM), 1.05. The relative viability is 0.987 in experiment [2] (first compound 0.1581 µM); 0.775 in experiment [2] (first compound 0.5 µM); 0.161 in experiment [2] (first compound 1.581 µM); 0.104 in experiment [2] (first compound 5 µM); 0.478 in experiment [3] (first compound 0.05 µM); 0.489 in experiment [3] (first compound 0.1581 µM). Moreover, the relative viability in experiment [3] (first compound 0.5 µM) came out at 0.37; in experiment [3] (first compound 1.581 µM), 0.137; in experiment [3] (first compound 5 µM), 0.0826; in experiment [4] (first compound 0.05 µM), 0.232; in experiment [4] (first compound 0.1581 µM), 0.211; in experiment [4] (first compound 0.5 µM) it was 0.176. Further, the relative viability turned out to be 0.108 in experiment [4] (first compound 1.581 µM) and 0.0766 in experiment [4] (first compound 5 µM).

As to NCI-H647, the relative viability in experiment [1] (first compound 0.05 µM) worked out at 1.1; in experiment [1] (first compound 0.1581 µM), 1.17; in experiment [1] (first compound 0.5 µM) it was 0.444; in experiment [1] (first compound 1.581 µM), 0.195; in experiment [1] (first compound 5 µM), 0.0972; in experiment [2] (first compound 0.05 µM), 1.23. In addition, the relative viability in experiment [2] (first compound 0.1581 µM) was determined as 1.1; in experiment [2] (first compound 0.5 µM), 0.214; in experiment [2] (first compound 1.581 µM), 0.079; in experiment [2] (first compound 5 µM), 0.0802; in experiment [3] (first compound 0.05 µM), 0.179; in experiment [3] (first compound 0.1581 µM), 0.176. Besides, the relative viability in experiment [3] (first compound 0.5 µM) came to 0.0943; in experiment [3] (first compound 1.581 µM), 0.06; in experiment [3] (first compound 5 µM), 0.0757; in experiment [4] (first compound 0.05 µM), 0.474; in experiment [4] (first compound 0.1581 µM), 0.331; in experiment [4] (first compound 0.5 µM), 0.103. Moreover, the values for the relative viability in experiment [4] (first compound 1.581 µM) and in experiment [4] (first compound 5 µM) were 0.0536 and 0.0596, respectively.

With NCI-H2009, the relative viability in experiment [1] (first compound 0.05 µM) was 1.07; in experiment [1] (first compound 0.1581 µM), 1.1; in experiment [1] (first compound 0.5 µM), 0.89; in experiment [1] (first compound 1.581 µM) it was 0.354; in experiment [1] (first compound 5 µM), 0.248; in experiment [2] (first compound 0.05 µM) it was 1.07. Besides, the relative viability in experiment [2] (first compound 0.1581 µM) was 1.05; in experiment [2] (first compound 0.5 µM), 0.667; in experiment [2] (first compound 1.581 µM) it was 0.169; in experiment [2] (first compound 5 µM), 0.154; in experiment [3] (first compound 0.05 µM), 0.983; in experiment [3] (first compound 0.1581 µM) it was 0.884. For the same cell line, the relative viability in experiment [3] (first compound 0.5 µM) stood at 0.43; in experiment [3] (first compound 1.581 µM) it was 0.218; in experiment [3] (first compound 5 µM), 0.26; in experiment [4] (first compound 0.05 µM), 0.604; in experiment [4] (first compound 0.1581 µM), 0.623; in experiment [4] (first compound 0.5 µM), 0.171. Moreover, the relative viability was 0.107 in experiment [4] (first compound 1.581 µM) and 0.0932 in experiment [4] (first compound 5 µM).

The values are drawn from the supplement of paper PMC10307832.
